We go through 79 compounds from the METLIN SMRT retention time set (Domingo-Almenara et al. 2019).

The data set can be described thus: gradient 5% acetonitrile 3 min, to 50% in 2 min, to 85% in 15 min, held 3 min, 100 µL/min. Particulars: column: Zorbax Extend-C18 2.1 x 50 mm; eluents: water / acetonitrile, 0.1% formic acid. In a few lines:
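Values are retention times taken from adduct peaks that software picked and an analyst inspected. The pure standards were run as mixtures of ~100 molecules on HPLC linked to a quadrupole time-of-flight mass spectrometer, in positive and negative ionization mode. A Zorbax Extend-C18 column (2.1 × 50 mm, 1.8 μm) was used at 100 μL/min with water and acetonitrile, each including 0.1% formic acid.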
The compound `N=c1nc(N2CCCCC2)cc(N)n1O` gave an RP-LC retention time of 676 s.
The compound `CCOC(=O)c1noc2ncnc(Nc3ccc(CC)cc3)c12` gave an RP-LC retention time of 1060 s.
Then `CS(=O)(=O)N1CCC(C(=O)Nc2cccc(C(F)(F)F)c2)Oc2ccc(Cl)cc21` (centres undefined), with 1060 s.
In turn, `CCC(C)C(NC(=O)CCc1ccc(OC)cc1)C(=O)Nc1nc2ccccc2[nH]1` (centres undefined) gave an RP-LC retention time of 734 s.
The same measure for `CCCNC(=O)c1ccc2c(c1)CCCN2S(=O)(=O)CC`: 753 s; for `CC(C)OC(=O)Cn1nc(-c2nc(-c3cccc(Cl)c3)no2)ccc1=O`: 1100 s; for `CCOc1cccc(CNC(=O)c2c(O)c3cccnc3[nH]c2=O)c1`: 969 s.
Then `COc1ccccc1-c1nc(Cn2ccn3nc(-c4ccc5c(c4)OCO5)cc3c2=O)c(C)o1`, with 960 s.
Then `Cc1cc(C(=O)Nc2cccc(-c3ccc(N4CCOCC4)nn3)c2)c(C)o1`, with 638 s; and `Cc1ccc(C(=O)NCC2CC(=O)N(c3ccc(Cl)cc3)C2)cc1[N+](=O)[O-]` (centres undefined), with 822 s.
As for `CCN1C(=O)COc2cc(-c3noc(C(=O)NC4CCCC4)n3)ccc21`, the RP-LC retention time was 936 s.
Then `CN1C(=O)c2cc(C(=O)NCc3ccccc3Cl)nn2CC1(C)C(=O)NC1CCCCC1` (centres undefined), with 839 s; and `COc1ccc(-n2c(=O)c(C(=O)NCc3ccco3)c(O)c3cccnc32)cc1`, with 1050 s; and `O=C(CN1C(=O)CCCc2cc(S(=O)(=O)N3CCCC3)ccc21)NCc1ccc(F)cc1`, with 792 s.
Then `CCOC(=O)c1nc(Nc2ccc(C(=O)OC(C)C)cc2)c2ccccc2n1`, with 989 s.
Regarding `Cc1nc(-c2cccc(NC(=O)Cc3csc(Nc4ncccn4)n3)c2)cs1`, the RP-LC retention time came to 731 s.
Regarding `CC1CCN(S(=O)(=O)N2CCCC(C(=O)NCCCN3CCc4ccccc4C3)C2)CC1` (centres undefined), the RP-LC retention time was 714 s.
The same measure for `O=C1CCN(C(=O)c2ccsc2)CCCOCCN1`: 586 s.
The same measure for `Cc1nc(-c2cnccn2)n(CC(=O)Nc2cccc(C(C)C)c2)c(=O)c1C`: 855 s; for `Cc1ccc(-c2nc3cccc(C)n3c2Nc2ccccc2)cc1`: 741 s; for `COCc1nc2cccnc2n1C1CCN(C(=O)Nc2ccccc2)CC1`: 680 s.
The same measure for `COCCCn1c(=O)c2ccccc2n(Cc2nc(-c3ccc(Cl)cc3)no2)c1=O`: 1070 s.
For `O=S(=O)(Cc1ccc(F)cc1Cl)N1CCc2nc(-c3ccc(F)cc3)ncc2C1`, the RP-LC retention time worked out at 1100 s.
The same measure for `CCn1c(=O)c(N2CCC(NC(=O)NC)CC2)nc2ccccc21`: 759 s.
The same measure for `O=C(NCc1ccc(Cl)cc1)C1CCN(C(=O)c2cc3ccsc3[nH]2)CC1`: 797 s; for `CCc1nnc2cc(N3CCN(Cc4ccc(C(C)C)cc4)CC3)cnn12`: 608 s.
Then `CCOC(=O)c1cccc(NC(=O)CN2C(=O)C(C)(C)c3ccccc32)c1`, with 900 s; and `O=C(c1ccc2c(c1)OCO2)N1CCC2(CC1)NC(=O)N(Cc1ccccc1)C2=O`, with 760 s; and `CC(C)n1c(=O)sc2cc(S(=O)(=O)N3CCC(C(=O)N4CCOCC4)CC3)ccc21`, with 762 s.
Compound `CN1c2cc(F)ccc2C(=O)NC12CCN(C(=O)c1ccccc1F)CC2` had an RP-LC retention time of 751 s.
The same measure for `Cn1c(C(=O)N2CCN(c3ccccc3)CC2)cc2c(=O)oc3ccccc3c21`: 905 s.
The same measure for `COc1ccc(Br)c2c1-c1nc(NC(=O)c3ccccc3)sc1C2`: 1130 s.
Then `Cc1nnc(NC(=O)CCc2c(C)[nH]c(=O)[nH]c2=O)s1`, with 547 s; and `Cc1ccccc1NC(=O)N1CCC(c2nc(C(=O)N3CCOCC3)c(C)o2)CC1`, with 673 s.
`CC(C)(C)c1noc(-c2ccc(-n3cnc(C(=O)N4CCCCC4)c3)nc2)n1`: the RP-LC retention time came to 742 s.
The same measure for `O=C(Cn1cnc2nc(N3CCC(C(=O)NC4CC4)CC3)sc2c1=O)Nc1ccc(F)cc1F`: 651 s; for `CCN(CCN(C)C)C(=O)c1cc2c(s1)-c1ccc(Cl)cc1S(=O)(=O)C2`: 660 s; for `CCN1CCC(CCNC(=O)C2CN(C(=O)c3cccs3)CC23CCCCC3)CC1` (centres undefined): 625 s.
`Cc1cccc(Nc2nc(C(=O)NCCc3cccs3)nc3ccccc23)c1` had an RP-LC retention time of 863 s.
Compound `CCCN(CC1CCOC1)S(=O)(=O)c1ccc(C)c(Cl)c1` (centres undefined) came in with an RP-LC retention time of 1050 s.
As to `Cc1ccccc1CC(=O)Nc1ccc2c(c1)Sc1ncccc1C(=O)N2C(C)C`, the RP-LC retention time stood at 912 s.
`Cc1ccc(CC(=O)N2CCC(COc3ccc(C(=O)NC4CC4)cc3)CC2)cc1` returned an RP-LC retention time of 856 s.
Then `CCOC(=O)C1=C(O)C(=O)N(c2ccccc2)C1c1ccccc1` (centres undefined), with 881 s; and `O=C1COc2ccc(S(=O)(=O)N3CCC(C(=O)Nc4ccc(F)cc4F)CC3)cc2N1`, with 763 s; and `CC(=O)c1ccc(S(=O)(=O)N2CCC[C@@H]2C(=O)NCc2csc(C)n2)cc1`, with 677 s.
Then `CCCC[C@@H](C)/C=C(C)/C=C(\C)C(=O)NC1=C[C@@](O)(/C=C/C=C/C=C/C(=O)NC2=C(O)CCC2=O)[C@@H]2OC2C1=O` (some centres undefined), with 1250 s; and `CCS(=O)(=O)N1CC(CC#N)(n2cc(-c3ncnc4[nH]ccc34)cn2)C1`, with 637 s.
The compound `CCN1C(=O)C(C)(C(=O)NCc2ccc(F)c(Cl)c2)Oc2cccnc21` (centres undefined) showed an RP-LC retention time of 902 s.
Then `C=Cc1ccc(Cn2nc(-c3nc(-c4ccc(F)cc4)no3)ccc2=O)cc1`, with 1200 s; and `CCN1CCN(c2cc(C)c3cc(NC(=S)NCc4ccccc4OC)ccc3n2)CC1`, with 605 s.
The same measure for `CC(C)[C@H](NC(=O)OCc1ccccc1)C(=O)N[C@H](C=O)Cc1ccccc1`: 773 s; for `O=C(Nc1cccc(F)c1)C1CC(=O)N(CCc2c[nH]c3ccc(Cl)cc23)C1` (centres undefined): 844 s.
The same measure for `Cn1nccc1C(=O)Nc1ccsc1-c1nc(-c2ccc(Cl)cc2)no1`: 1430 s; for `O=C(Nc1cccc(Cl)c1)Nc1nccs1`: 870 s; for `O=C(Cn1cnc2ccccc21)NCCOc1cccc2cccnc12`: 527 s.
The compound `Cc1nc(CNC(=O)C2CCN(C(=O)Nc3ccc(C)c(Cl)c3)CC2)cs1` displayed an RP-LC retention time of 714 s.
The same measure for `Cc1ccc(C(=O)N2CCC3(CC2)c2nccn2-c2ccccc2CN3CC(C)C)cc1F`: 786 s; for `Cc1cc(=O)n(CC(=O)Nc2cccc(C(F)(F)F)c2)c(N2CCOCC2)n1`: 754 s; for `COc1ccc(-c2cnc(SCC(=O)Nc3cc(C)on3)n2Cc2ccco2)cc1`: 705 s.
Then `CCOC(=O)c1cc2n(n1)CC(C)(C(=O)NC1CCCC1)N(c1ccccc1F)C2=O` (centres undefined), with 876 s; and `CCc1nc2sc(C(C)C)nn2c1S(=O)(=O)NC1CCCCC1`, with 1020 s; and `O=C1CCC2(C(=O)NCCc3ccccc3)CCCC=C2N1c1ccccc1` (centres undefined), with 808 s.
The same measure for `Cc1ccccc1-c1cn2ccn(-c3ccc4c(c3)CCC4)c(=O)c2n1`: 962 s; for `CC1=C(c2ccccc2)S(=O)(=O)N=C1N1CCCN(C(=O)c2ccc(F)cc2F)CC1`: 835 s; for `O=C1CCN(C(=O)Nc2ccccc2)CCOCCN1`: 613 s.
The compound `CCc1ccccc1N(C)S(=O)(=O)c1ccccc1-c1nc(-c2ccccc2)no1` returned an RP-LC retention time of 1270 s.
Then `Cc1ccc(F)c(-n2nnc(C(=O)O)c2-c2cccnc2)c1`, with 642 s; and `Cc1ccc2nc(C(=O)NCc3ccccc3Cl)cn2c1`, with 718 s.
`CCOC(=O)c1noc2nc(C)nc(NCC3CCN(Cc4cccc(C)c4)CC3)c12` gave an RP-LC retention time of 609 s.
Take `O=S(=O)(c1cccc(-c2nnc(-c3ccc(Cl)cc3)o2)c1)N1CCOCC1`: the RP-LC retention time is 995 s.
The same measure for `CC1(C(=O)NC2CCCC2)Cn2cnc(C(=O)NCc3ccc(F)cc3)c2C(=O)N1C1CC1` (centres undefined): 759 s; for `O=c1ccc(-c2ccc(F)cc2)nn1CCc1nc(-c2ccc(F)cc2)no1`: 712 s.
Then `CC(C)C(=O)N1CCC2(CC1)NCc1ccccc1-n1ccnc12`, with 574 s; and `Cc1ccc(NC(=O)C2CCCN(c3nnc(C)c4c(C)n(-c5ccccc5)nc34)C2)cc1C` (centres undefined), with 820 s; and `CCOCC(=O)N1CC(c2nc(-c3ccccc3)no2)C2(CCOCC2)C1` (centres undefined), with 766 s.
Turning to `CCN1CCN(CCCNC(=O)c2ccc(CS(=O)c3ccccc3Cl)o2)CC1` (centres undefined), the RP-LC retention time was 567 s.
The same measure for `Cc1c(C(=O)NCCCN2CCOCC2)sc2ncnc(N3CCN(c4ccccn4)CC3)c12`: 558 s.
The same measure for `CCNc1cc(C)nc(N2CCN(C(=O)CC(C)C)CC2)n1`: 613 s.
Then `Cc1csc(-c2ccc(N3CCN(C(=O)Cc4cccc(F)c4)CC3)nc2)n1`, with 849 s.
